Experimental data published in US4473572A, “α2 -Adrenoceptor antagonistic benzoquinolizines” (John Wyeth & Brother, Limited, priority 1982, dated 1984).

What was measured:
α1-adrenoceptor = biological target: T1, α1-adrenoceptor (Rattus norvegicus, UniProt P43140); assay: α1 antagonistic activity on the isolated anococcygeus muscle of the rat (against phenylephrine or methoxamine); settings: antagonist of phenylephrine or methoxamine, 37°, 10^-6 to 10^-4 M test drug, 30 min equilibration, read-out: pA2 (α1) (converted)
T1 construct: isolated anococcygeus muscle of the rat; from tissue; host or cells: anococcygeus muscle of male rats (250-360 g)
T1 sequence (P43140 1-466): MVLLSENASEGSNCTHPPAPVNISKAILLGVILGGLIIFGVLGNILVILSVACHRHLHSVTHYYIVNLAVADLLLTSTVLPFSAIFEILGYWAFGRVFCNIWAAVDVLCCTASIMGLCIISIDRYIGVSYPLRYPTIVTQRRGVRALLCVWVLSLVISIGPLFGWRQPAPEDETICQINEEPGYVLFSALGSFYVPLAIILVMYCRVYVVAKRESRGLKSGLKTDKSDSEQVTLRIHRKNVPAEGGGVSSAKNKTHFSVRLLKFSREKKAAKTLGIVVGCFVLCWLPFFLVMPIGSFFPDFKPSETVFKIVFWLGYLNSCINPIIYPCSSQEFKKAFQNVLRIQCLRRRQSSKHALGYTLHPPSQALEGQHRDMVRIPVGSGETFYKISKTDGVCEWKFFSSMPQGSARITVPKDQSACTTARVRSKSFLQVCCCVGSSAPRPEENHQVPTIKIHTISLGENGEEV
Source text: The α1 antagonistic activity can be evaluated by a number of different methods. One method involves assessing the activity on the isolated anococcygeus muscle of the rat. The method is based on that of Gillespie, Br.J.Pharmac., 1972, 45, 404-416. In the procedure male rats (250-360 g) are killed by a blow on the head and bled. The two anococcygeus muscles are removed from their position in the midline of the pelvic cavity, where they arise from the upper coccygeal vertebrae. The muscles are suspended in 5 ml organ baths in Krebs solution containing 10^-4 M ascorbic acid, to prevent drug oxidation. The tissues are gassed with a 95% oxygen, 5% CO2 mixture and maintained at 37°. Longitudinal muscle contractions are recorded using isotonic transducers. Cumulative dose response curves are then obtained to phenylephrine or in some cases methoxamine, both agents being […] alpha adrenoceptor agonists. The concentration range of phenylephrine or methoxamine used is 0.02 to 0.8 μg.ml^-1. The agonist is then washed from the bath and the test drug added to the bathing medium at a concentration of 10^-6 M. After 30 min. equilibration with the test drug a further agonist dose response curve is obtained. The washing, equilibration and agonists dosing procedures are then repeated using 10^-5 M and 10^-4 M solutions of the test drug. Estimates of the pA2 value for the test drug as an antagonist of phenylephrine or methoxamine were made from the agonist dose-ratios using the method of Arunlakshana & Schild, Br.J.Pharmac.Chemother., 1959, 14, 48-58.

α2-adrenoceptor = biological target: T2, α2-adrenoceptor (Rattus norvegicus, UniProt P22909); assay: α2-adrenoceptor antagonistic activity on the rat field stimulated vas deferens preparation (against clonidine); settings: for α2/α1 selectivity: antilog of (α2 pA2 - α1 pA2); for Kb: rat field stimulated vas deferens, clonidine as agonist, 37°, 90 min after introduction of antagonist, Arunlakshana & Schild, read-out: pA2 (α2) (converted)
T2 construct: from tissue; host or cells: desheathed vas deferens of sexually mature rats
T2 sequence (P22909 1-465): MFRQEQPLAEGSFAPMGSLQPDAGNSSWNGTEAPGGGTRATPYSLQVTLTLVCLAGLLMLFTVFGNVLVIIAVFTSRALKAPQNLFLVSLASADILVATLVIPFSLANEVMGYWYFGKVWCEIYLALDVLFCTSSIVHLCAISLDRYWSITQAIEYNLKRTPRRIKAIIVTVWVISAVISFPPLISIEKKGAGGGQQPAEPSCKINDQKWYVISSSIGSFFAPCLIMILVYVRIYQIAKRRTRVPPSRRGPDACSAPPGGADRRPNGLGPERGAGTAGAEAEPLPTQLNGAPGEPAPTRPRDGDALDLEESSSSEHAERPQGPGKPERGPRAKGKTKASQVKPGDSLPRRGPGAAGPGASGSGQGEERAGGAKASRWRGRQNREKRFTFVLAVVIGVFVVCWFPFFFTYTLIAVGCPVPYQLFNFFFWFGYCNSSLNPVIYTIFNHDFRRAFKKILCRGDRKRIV
Method: The compounds of the invention were tested for their α2 -adrenoceptor antagonistic activity on the rat field stimulated vas deferens preparation using a modification of the method of Drew, Eur.J.Pharmac., 1977, 42, 123-130. The procedure is described below.
Desheathed vas deferentia from sexually mature rats were suspended in a 6 ml organ bath in Krebs solution at 37° and bubbled with 5% CO2 in oxygen. Platinum ring electrodes were positioned above and below the tissue for field stimulation, the stimulus parameters being 0.1 Hz 1 ms pulse width at supramaximal voltage. Twitch responses were recorded isotonically with a 0.5 g loading. Clonidine hydrochloride was used as the α-adrenoceptor agonist and cumulative concentration-response curves were constructed for the inhibition of twitch obtained with clonidine in the range 0.125 to 4 ng ml^-1. After washing out clonidine, the twitch response quickly recovered and an antagonist was then introduced into the Krebs reservoir. Clonidine concentration-response curves were repeated 90 min after introduction of the antagonist. The concentration of clonidine producing 50% inhibition of twitch before and after introduction of antagonist were obtained and the dose-ratio for clonidine was calculated. Various concentrations of the antagonists were used.
Chemother., 1959, 14, 48-58 and the values of pA2 and slope were calculated.

Kb (α1-adrenoceptor) [nM] | α2/α1 selectivity (α2-adrenoceptor) | Kb (α2-adrenoceptor) [nM] | Structure (SMILES)
3240 | 46 | 70.8 | CN([C@H]1CCN2CCc3ccccc3[C@H]2C1)S(=O)(=O)C(F)(F)F (relative stereo) [Example 1, N-Methyl-N-(1,3,4,6,7,11bα-hexahydro-2H-benzo[a]quinolizin-2β-yl)-trifluoromethanesulphonamide]
1170 | 43 | 27.5 | CN([C@H]1CCN2CCc3ccccc3[C@H]2C1)S(=O)(=O)CC(F)(F)F (relative stereo) [Example 2, N-Methyl-N-(1,3,4,6,7,11bα-hexahydro-2H-benzo[a]quinolizin-2β-yl)-2',2',2'-trifluoroethanesulphonamide]
245 | 45 | 8.91 | CN([C@H]1CCN2CCc3ccccc3[C@H]2C1)S(=O)(=O)CCl (relative stereo) [Example 3, N-Methyl-N-(1,3,4,6,7,11bα-hexahydro-2H-benzo[a]quinolizin-2β-yl)chloromethanesulphonamide]
288 | 27.5 | 8.32 | CN([C@H]1CCN2CCc3ccccc3[C@H]2C1)S(=O)(=O)CCCCl (relative stereo) [Example 4, N-Methyl-N-(1,3,4,6,8,11bα-hexahydro-2H-benzo[a]quinolizin-2β-yl)-3'-chloropropanesulphonamide]
